Data as given in patent US11859014B2, “Peptidomimetics for the treatment of Norovirus infection” (EMORY UNIVERSITY, priority 2016, dated 2024).

How the values were obtained:
[1] = system: NoV replicon RNA in HG23 cells (derived from Huh-7 cells); test: Norwalk virus replicon assay in HG23 cells; assay type: cell-based; settings: 120 h, five days incubation; for EC50: read-out: Anti-NoV activity (μM) EC50; for EC90: read-out: Anti-NoV activity (μM) EC90
Description: Norwalk virus replicon assays were performed as reported by Constantini et al. (Antivir Ther 2012, 17, 981-991). HG23 cells (derived from Huh-7 cells) containing NoV replicon RNA are seeded at a density of 3,000 cells/well in 96-well plates and incubated at 37° C. and 5% CO2 overnight. Compounds were tested at concentrations ranging from 0.1 to 100 μM. Compounds were added in triplicate to 80 to 90% confluent monolayers and incubated at 37° C. and 5% CO2. Untreated cells were included in each plate. Following five days incubation (37° C., 5% CO2), total cellular RNA was isolated with RNeasy96 extraction kit from Qiagen. Replicon RNA and an internal control (TaqMan rRNA control reagents, Applied Biosystems) were amplified in a single step.
The median effective concentrations (EC50) ranges of several of the compounds described herein against NoV are shown in Table 3: […]

[2] = Cellular toxicity assay in CEM cells; assay type: cell-based; settings: human, read-out: Cytotoxicity, CC50 (μM) CEM
Description: (§1) The toxicity of the compounds was assessed in Vero, human PBM, CEM (human lymphoblastoid), MT-2, and HepG2 cells, as described previously (see Schinazi R. F., Sommadossi J.-P., Saalmann V., Cannon D. L., Xie M.-Y., Hart G. C., Smith G. A. & Hahn E. F. Antimicrob. Agents Chemother. 1990, 34, 1061-67). Cycloheximide was included as positive cytotoxic control, and untreated cells exposed to solvent were included as negative controls. The cytotoxicity CC50 was obtained from the concentration-response curve using the median effective method described previously (see Chou T.-C. & Talalay P. Adv. Enzyme Regul. 1984, 22, 27-55; Belen'kii M. S. & Schinazi R. F. Antiviral Res. 1994, 25, 1-11).

[3] = Cellular toxicity assay in Vero cells; assay type: cell-based; settings: African green monkey, read-out: Cytotoxicity, CC50 (μM) VERO
Description: as §1

[4] = Cellular toxicity assay in Huh7 cells; assay type: cell-based; settings: human, read-out: Cytotoxicity, CC50 (μM) Huh7
Description: [The procedure below names another cell line; the source lists this cell line under the same test.] as §1

[5] = Cellular toxicity assay in PBM cells; assay type: cell-based; settings: human, read-out: Cytotoxicity, CC50 (μM) PBM
Description: as §1

[6] = target: Norovirus GI.1 (Norwalk virus) protease (Norovirus (strain Human/NoV/United States/Norwalk/1968/GI) (Hu/NV/NV/1968/US), UniProt Q83883); test: FRET based enzyme assay, Norovirus GI.1 protease; assay type: biochemical; settings: 37° C.
Description: Norovirus GI.1 (Norwalk virus) protease were tested for enzymatic activity using a fluorescence resonance energy transfer (FRET) based enzyme assay. Norovirus GI.1 represents 5 to 10% of the clinical isolates. The FRET kinetic enzyme assays were performed as follows. The purified viral protease was diluted in reaction buffer (50 mM HEPES, pH 8.0, 120 mM NaCl, 0.4 mM EDTA, 20% glycerol, and 4 mM DTT) to a final concentration of 128 nM. Each reaction was initiated by addition of FRET substrate [(HiLyte Fluor 488) -[…]-(QXL520)]. To determine kinetic parameters, the FRET substrate was serially diluted to final concentrations of 100 μM to 49 nM and added to the reaction. The final reaction volume was 100 μL. The fluorescence emitted by substrate cleavage was monitored by a microplate reader (SpectraMax M5, Molecular Devices, Sunnyvale, CA, USA) at a 488 nm excitation wavelength with an emission wavelength of 520 nm. Readings were taken every minute for 20 minutes, and the reactions were performed at 37° C. In order to convert RFU into μM, a standard curve was created by measuring fluorescence of free HiLyte Fluor 488, which was serially diluted from 250 nM to 3.9 nM. All data were plotted and analyzed with GraphPad Prism v. 6.07.

[7] = target: Minerva virus protease (Norovirus GII.4 (Minerva virus), UniProt P54634); test: FRET enzyme kinetic assay, NoV GII.4 Minerva virus protease; assay type: biochemical; settings: Minerva virus (GII.4) protease; inhibitor incubated with enzyme 90 minutes at 37° C. before FRET substrate
Description: The ability of these compounds to inhibit the NoV, specifically Minerva virus protease catalytic Cys139 covalently (IC50 and Ki) was determined with an enzyme kinetic assay. NoV strains, specifically GII.4 such as the Minerva virus are responsible for causing the majority (˜80%) of infections in humans. The activity of the inhibitors was evaluated by monitoring the cleavage of a FRET substrate every one minute for 20 minutes (excitation/emission: 488/520 nm) using a SpectraMax M5 microplate reader (Molecular Devices, Sunnyvale CA). Serial dilutions of each inhibitor were incubated with enzyme for 90 minutes at 37° C. before addition of the FRET substrate to ensure complete inactivation. Commercially available protease inhibitors chymostatin and rupintrivir were used as controls.

Chain of Norovirus GI.1 (Norwalk virus) protease (Q83883 1101-1281): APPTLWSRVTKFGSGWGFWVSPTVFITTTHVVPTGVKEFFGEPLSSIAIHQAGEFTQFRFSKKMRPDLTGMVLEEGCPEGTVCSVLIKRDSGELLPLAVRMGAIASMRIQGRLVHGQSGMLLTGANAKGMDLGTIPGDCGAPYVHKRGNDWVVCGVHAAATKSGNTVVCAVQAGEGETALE
Chain of Minerva virus protease (P54634 whole entry, looked up): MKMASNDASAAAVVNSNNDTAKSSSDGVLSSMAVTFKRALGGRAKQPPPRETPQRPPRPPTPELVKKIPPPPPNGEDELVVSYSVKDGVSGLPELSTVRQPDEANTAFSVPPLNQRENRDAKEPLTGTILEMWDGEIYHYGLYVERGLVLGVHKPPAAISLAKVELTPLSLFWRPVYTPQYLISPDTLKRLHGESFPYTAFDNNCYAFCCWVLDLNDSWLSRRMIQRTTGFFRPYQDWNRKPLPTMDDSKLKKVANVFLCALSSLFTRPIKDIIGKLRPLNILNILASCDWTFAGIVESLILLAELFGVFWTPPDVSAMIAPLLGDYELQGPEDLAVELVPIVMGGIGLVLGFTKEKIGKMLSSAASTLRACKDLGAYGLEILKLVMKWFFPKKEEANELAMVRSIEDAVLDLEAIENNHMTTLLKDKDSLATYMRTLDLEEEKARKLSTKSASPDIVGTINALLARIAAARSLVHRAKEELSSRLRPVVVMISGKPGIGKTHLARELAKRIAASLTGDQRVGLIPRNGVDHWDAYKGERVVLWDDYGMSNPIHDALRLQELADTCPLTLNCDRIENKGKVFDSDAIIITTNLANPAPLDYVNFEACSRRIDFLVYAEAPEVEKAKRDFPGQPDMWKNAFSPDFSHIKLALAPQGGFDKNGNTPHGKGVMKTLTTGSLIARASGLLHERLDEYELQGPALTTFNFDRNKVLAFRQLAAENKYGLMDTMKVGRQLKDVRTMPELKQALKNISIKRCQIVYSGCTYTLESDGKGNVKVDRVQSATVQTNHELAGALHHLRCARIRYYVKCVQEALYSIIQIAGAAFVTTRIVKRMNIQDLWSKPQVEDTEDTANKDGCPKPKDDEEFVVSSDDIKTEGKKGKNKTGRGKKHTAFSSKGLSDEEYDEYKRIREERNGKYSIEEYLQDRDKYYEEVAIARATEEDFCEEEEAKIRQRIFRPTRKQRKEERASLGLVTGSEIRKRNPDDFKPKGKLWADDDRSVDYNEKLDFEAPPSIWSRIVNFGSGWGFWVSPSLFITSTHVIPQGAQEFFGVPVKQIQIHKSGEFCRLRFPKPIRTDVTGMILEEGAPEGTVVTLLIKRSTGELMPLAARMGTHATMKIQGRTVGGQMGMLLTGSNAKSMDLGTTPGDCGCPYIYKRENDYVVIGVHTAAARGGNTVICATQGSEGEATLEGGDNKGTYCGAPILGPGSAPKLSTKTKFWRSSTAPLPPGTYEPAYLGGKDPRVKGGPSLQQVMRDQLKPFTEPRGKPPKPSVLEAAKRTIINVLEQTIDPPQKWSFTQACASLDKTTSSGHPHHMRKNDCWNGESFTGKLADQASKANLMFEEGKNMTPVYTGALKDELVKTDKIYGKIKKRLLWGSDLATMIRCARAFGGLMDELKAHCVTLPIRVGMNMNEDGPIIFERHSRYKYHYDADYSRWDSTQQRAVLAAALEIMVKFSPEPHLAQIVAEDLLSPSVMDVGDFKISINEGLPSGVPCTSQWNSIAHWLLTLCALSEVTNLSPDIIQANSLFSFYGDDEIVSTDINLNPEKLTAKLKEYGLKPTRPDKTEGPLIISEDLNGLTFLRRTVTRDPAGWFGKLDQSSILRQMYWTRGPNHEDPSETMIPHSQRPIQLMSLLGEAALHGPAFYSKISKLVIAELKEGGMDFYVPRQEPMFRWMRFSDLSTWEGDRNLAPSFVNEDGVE

Row | Structure (SMILES) | EC50 [1] | EC90 [1] | CC50 [2] | CC50 [3] | CC50 [4] | CC50 [5] | CC50 ([2]; CEM lymphoblastoid cells) | IC50 [6] | Ki [6] | IC50 [7]
1 | CC(C)C[C@H](NC(=O)[C@H](Cc1ccc(O)cc1)NC(=O)OCc1ccccc1)C(=O)N[C@H](C=O)C[C@@H]1CCCNC1=O [Compound 11, Benzyl ((S)-3-(4-hydroxyphenyl)-1-(((S)-4-methyl-1-oxo-1-(((S)-1-oxo-3-((S)-2-oxopiperidin-3-yl)propan-2-yl)amino)pentan-2-v)amino)-1-oxopropan-2-yl)carbamate] | 0.7 µM | 2.4 µM | > 100 µM | > 100 µM | > 10 µM | > 100 µM | – | – | – | –
2 | CC(C)C[C@H](NC(=O)[C@H](Cc1cccc2ccccc12)NC(=O)OCc1ccccc1)C(=O)N[C@H](C=O)C[C@@H]1CCCNC1=O [Compound 19] | 0.07 µM | 0.27 µM | 32 µM | 20 µM | > 10 µM | 24 µM | – | – | – | –
3 | CC(C)C[C@H](NC(=O)[C@H](Cc1cccc2ccccc12)NC(=O)c1cnccn1)C(=O)N[C@H](C=O)C[C@@H]1CCCNC1=O [Compound 23] | 0.07 µM | 0.33 µM | 39 µM | > 100 µM | > 10 µM | > 100 µM | – | – | – | –
4 | CC(C)C[C@H](NC(=O)[C@H](Cc1cccc2ccccc12)NC(=O)c1cnccn1)C(=O)N[C@H](C=O)C[C@@H]1CCNC1=O [Compound 29] | 0.08 µM | 0.46 µM | 38 µM | > 100 µM | > 10 µM | > 100 µM | – | – | – | –
5 | CC(C)C[C@H](NC(=O)[C@H](Cc1ccc(F)cc1)NC(=O)OCc1ccccc1)C(=O)N[C@H](C=O)C[C@@H]1CCCNC1=O [Compound 35, Benzyl ((S)-3-(4-fluorophenyl)-1-(((S)-4-methyl-1-oxo-1-(((S)-1-oxo-3-((S)-2-oxopiperidin-3-yl)propan-2-yl)amino)pentan-2-yl)amino)-1-oxopropan-2-yl)carbamate] | – | – | – | > 100 µM | 60 µM | 52 µM | 35 µM | 0.096 ± 0.011 µM | 0.465 ± 0.201 µM | –
6 | CC(C)C[C@H](NC(=O)[C@H](Cc1cccc2ccccc12)NC(=O)OCc1ccccc1)C(=O)N[C@H](/C=C(\C#N)C(N)=O)C[C@@H]1CCCNC1=O [Compound 36, Benzyl ((S)-1-(((S)-1-(((S,E)-5-amino-4-cyano-5-oxo-1-((S)-2-oxopiperidin-3-yl)pent-3-en-2-yl)amino)-4-methyl-1-oxopentan-2-yl)amino)-3-(naphthalen-1-yl)-1-oxopropan-2-yl)carbamate] | – | – | 9 µM | > 100 µM | 8 µM | 45 µM | – | 0.593 ± 0.124 µM | 1.7 ± 0.332 µM | 1.17 ± 0.333 µM
7 | CC(C)C[C@H](NC(=O)[C@H](Cc1cccc2ccccc12)NC(=O)OCc1ccccc1)C(=O)N[C@@H](C[C@@H]1CCCNC1=O)C(O)S(=O)(=O)O (stereo partly drawn) [Compound 37, Sodium (5S,8S,11S)-12-hydroxy-8-isobutyl-5-(naphthalen-1-ylmethyl)-3,6,9-trioxo-11-(((S)-2-oxopiperidin-3-yl)methyl)-1-phenyl-2-oxa-4,7,10-triazadodecane-12-sulfonate] | – | – | 18 µM | > 100 µM | 11 µM | 44 µM | – | 0.654 ± 0.285 µM | 2.24 ± 0.438 µM | 2.63 ± 1.04 µM
8 | CC(C)C[C@H](NC(=O)[C@H](Cc1cccc2ccccc12)NC(=O)OCc1ccccc1)C(=O)N[C@@H](C[C@@H]1CCCNC1=O)C(O)C(F)(F)F (stereo partly drawn) [Compound 38, Benzyl ((2S)-1-(((2S)-4-methyl-1-oxo-1-(((2S)-4,4,4-trifluoro-3-hydroxy-1-((S)-2-oxopiperidin-3-yl)butan-2-yl)amino)pentan-2-yl)amino)-3-(naphthalen-1-yl)-1-oxopropan-2-yl)carbamate] | – | – | – | 22 µM | 13 µM | 18 µM | 6 µM | > 10 µM | – | –
9 | CC(C)C[C@H](NC(=O)[C@H](Cc1cccc2ccccc12)NC(=O)OCc1ccccc1)C(=O)N[C@@H](C[C@@H]1CCCNC1=O)C(=O)C(F)(F)F [Compound 39, Benzyl ((S)-1-(((S)-4-methyl-1-oxo-1-(((S)-4,4,4-trifluoro-3-oxo-1-((S)-2-oxopiperidin-3-yl)butan-2-yl)amino)pentan-2-yl)amino)-3-(naphthalen-1-yl)-1-oxopropan-2-yl)carbamate] | – | – | 2 µM | 11 µM | 14 µM | 39 µM | – | > 10 µM | – | –
10 | CC(C)C[C@H](NC(=O)[C@H](Cc1cccc2ccccc12)NC(=O)OCc1ccccc1)C(=O)N[C@H](/C=C/C=O)C[C@@H]1CCNC1=O [Compound 64, Benzyl ((S)-1-(((S)-4-methyl-1-oxo-1-(((S,E)-5-oxo-1-((S)-2-oxopyrrolidin-3-yl)pent-3-en-2-yl)amino)pentan-2-yl)amino)-3-(naphthalen-1-yl)-1-oxopropan-2-yl)carbamate] | – | – | – | – | – | – | – | 10 µM | – | –
11 | CC(C)C[C@H](NC(=O)[C@H](Cc1cccc2ccccc12)NC(=O)OCc1ccccc1)C(=O)N[C@@H](C[C@@H]1CCNC1=O)C1OC1S(C)(=O)=O (stereo partly drawn) [Compound 67, Benzyl ((2S)-1-(((2S)-4-methyl-1-(((1S)-1-(3-(methylsulfonyl)oxiran-2-yl)-2-((S)-2-oxopyrrolidin-3-yl)ethyl)amino)-1-oxopentan-2-yl)amino)-3-(naphthalen-1-yl)-1-oxopropan-2-yl)carbamate] | 4.33 µM | > 20 µM | 64 µM | > 100 µM | – | > 100 µM | – | > 10 µM | – | –
12 | O=C[C@H](C[C@@H]1CCCNC1=O)NC(=O)[C@H](Cc1ccccc1)NC(=O)[C@H](Cc1cccc2ccccc12)NC(=O)OCc1ccccc1 [Compound 83, Benzyl ((S)-3-(naphthalen-1-yl)-1-oxo-1-(((S)-1-oxo-1-(((S)-1-oxo-3-((S)-2-oxopiperidin-3-yl)propan-2-yl)amino)-3-phenylpropan-2-yl)amino)propan-2-yl)carbamate] | 0.33 µM | 0.91 µM | – | 41.2 µM | – | 48.7 µM | 17 µM | 0.084 ± 0.019 µM | 0.256 ± 0.057 µM | –
13 | O=C(N[C@@H](Cc1cccc2ccccc12)C(=O)N[C@@H](Cc1ccccc1)C(=O)N[C@H](CCl)C[C@@H]1CCCNC1=O)OCc1ccccc1 [Compound 84, Benzyl ((S)-1-(((S)-1-(((S)-1-chloro-3-((S)-2-oxopiperidin-3-yl)propan-2-yl)amino)-1-oxo-3-phenylpropan-2-yl)amino)-3-(naphthalen-1-yl)-1-oxopropan-2-yl)carbamate] | > 10 µM | – | – | 51.7 µM | – | 75 µM | 26.6 µM | > 100 µM | – | –
